From patent publication US10975056B2 (GlaxoSmithKline Intellectual Property Development Limited, priority 2016, dated 2021)
“And” between values parts separate entries of the source, which are not always exact repeats. Equal values may be shown once. Where a name gives a salt, the structure may show the parent alone. Read-outs that look alike come from different tables or passages of the source.

Molecular target: DNMT1 (Homo sapiens, UniProt P26358)
Assay: DNMT1 biochemical activity, breaklight assay and/or SPA assay
Protocol: DNMT1 breaklight in vitro assays were conducted in a total volume of 50 μl in a standard 384 well format, using black non-binding surface microplates (Corning 3575). […] Negative control wells used 5 μl of DNMT1 and 5 μl of oligonucleotide but 0 μM SAM. All reagents were made up in 1× assay buffer (20 mM Tris pH 6.8, 25 mM NaCl, 0.5 mM MgCl2, 0.01% Triton X100 and 1 mM DTT). The reaction was incubated at 26° C. for 45 min and then stopped with the addition of 40 μl detection reagent. Detection reagent, made up in 1× Gla assay buffer (20 mM Tris pH 8.0, 80 mM NaCl, 0.75 mM MgCl2, 0.01% Triton X100 and 1 mM DTT) has a final concentration of 100 μM SAH (Sigma #A9384) and 0.0008 units/μl Gla1 restriction endonuclease (Sibenzyme #E494). Following addition of the detection reagent the plate was incubated in the dark at room temperature for 5 hr. Fluorescence intensity was then measured on the PHERAstar FS (BMG Labtech) at Ex 485 nm and Em 520 nm, with a gain of 400 and an integration time of 100 ms.
Biochemical activity of DNMT1 analyzed using SPA technology. Plates (Griener 784075) were pre-stamped with 100 nL/well of compound (11-point, 3-fold serial dilution). […] Low control wells contained 5 μL of buffer instead of enzyme. Following a 40 minute incubation, the reaction was quenched upon the addition of 10 μL of stop mixture containing 1 mM SAM (Sigma A7007) and 2 mg/mL PEI beads (Perkin Elmer RPNQ0098). Plates were sealed, centrifuged for 1 min and then read on a Viewlux (Perkin Elmer) using the 613 nm emission filter/300 s read time following a 30 minute dark adapt. Assay conditions prior to quench consisted of 40 nM DNMT1 (601-1600, produced internally), 100 nM 3H-SAM (American Radiolabeled Chemicals ART 0288), 900 nM SAM (New England BioLabs B9003S) and 200 nM hemi methylated DNA oligonucleotide (synthesized at Integrated DNA Technologies, 5′-[…]-3′) in 50 mM HEPES (pH 8.0), 2 mM MgCl2, 1 mM DTT, 0.01% NP-40 and 0.01% BSA.
Comments • 1. […] Where a field is empty, the compound was not tested in that assay.

[1] = binned activity in either the breaklight or the SPA assay, read-out: DNMT1 BioChemical (pIC50 category) (converted)
[2] = breaklight assay and/or SPA assay, repeated experimental runs, read-out: average pIC50 against DNMT1 (converted)
[3] = binned activity in either the breaklight or the SPA assay

Sequence of DNMT1 (P26358 whole entry, looked up): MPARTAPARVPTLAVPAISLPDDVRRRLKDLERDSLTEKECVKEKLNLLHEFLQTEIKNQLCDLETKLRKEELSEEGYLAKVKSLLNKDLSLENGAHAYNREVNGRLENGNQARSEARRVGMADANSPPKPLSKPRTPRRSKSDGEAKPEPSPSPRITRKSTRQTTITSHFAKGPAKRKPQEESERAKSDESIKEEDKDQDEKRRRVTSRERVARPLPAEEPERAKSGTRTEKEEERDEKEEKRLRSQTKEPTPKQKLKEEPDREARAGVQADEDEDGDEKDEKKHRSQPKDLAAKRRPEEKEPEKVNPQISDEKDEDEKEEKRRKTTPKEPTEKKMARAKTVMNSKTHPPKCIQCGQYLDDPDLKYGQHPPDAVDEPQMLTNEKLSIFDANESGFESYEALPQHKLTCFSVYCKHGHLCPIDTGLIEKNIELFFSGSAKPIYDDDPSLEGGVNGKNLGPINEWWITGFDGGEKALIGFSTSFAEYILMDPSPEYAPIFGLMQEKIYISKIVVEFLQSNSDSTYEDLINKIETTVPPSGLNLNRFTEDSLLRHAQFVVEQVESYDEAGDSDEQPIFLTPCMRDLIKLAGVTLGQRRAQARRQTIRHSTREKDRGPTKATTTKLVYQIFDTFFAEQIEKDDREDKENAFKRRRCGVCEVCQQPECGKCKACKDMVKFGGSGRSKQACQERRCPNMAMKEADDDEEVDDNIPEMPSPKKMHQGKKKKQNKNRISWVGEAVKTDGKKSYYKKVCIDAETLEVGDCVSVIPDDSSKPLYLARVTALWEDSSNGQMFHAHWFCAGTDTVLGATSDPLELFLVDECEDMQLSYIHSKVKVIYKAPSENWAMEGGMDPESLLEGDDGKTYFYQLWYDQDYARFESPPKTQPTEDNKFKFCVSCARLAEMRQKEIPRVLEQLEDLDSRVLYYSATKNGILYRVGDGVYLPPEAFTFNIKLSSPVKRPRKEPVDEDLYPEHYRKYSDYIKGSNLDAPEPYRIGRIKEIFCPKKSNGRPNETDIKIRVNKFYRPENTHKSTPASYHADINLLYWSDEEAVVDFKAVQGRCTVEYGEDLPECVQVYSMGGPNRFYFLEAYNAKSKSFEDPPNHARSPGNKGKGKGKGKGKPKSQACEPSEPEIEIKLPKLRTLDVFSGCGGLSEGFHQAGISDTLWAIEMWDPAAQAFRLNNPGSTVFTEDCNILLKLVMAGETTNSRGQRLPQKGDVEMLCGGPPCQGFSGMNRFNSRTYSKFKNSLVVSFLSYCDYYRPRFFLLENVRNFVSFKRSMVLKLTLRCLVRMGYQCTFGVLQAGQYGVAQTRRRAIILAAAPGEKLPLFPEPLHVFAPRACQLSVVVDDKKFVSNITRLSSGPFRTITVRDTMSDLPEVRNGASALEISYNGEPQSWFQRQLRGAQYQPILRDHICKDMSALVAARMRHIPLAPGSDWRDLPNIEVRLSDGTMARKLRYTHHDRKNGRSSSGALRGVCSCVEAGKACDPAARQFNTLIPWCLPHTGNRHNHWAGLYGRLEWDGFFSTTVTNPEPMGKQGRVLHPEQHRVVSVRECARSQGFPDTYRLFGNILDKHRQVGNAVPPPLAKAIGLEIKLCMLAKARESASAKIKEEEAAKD

IC50 [1] | DNMT1 BioChemical (pIC50 category) [3] | SMILES | further results
316 to 1000 nM |  | CCc1c(C#N)c(SC(C(N)=O)c2ccccc2)nc(N2CCN(CCN3CCCC3)CC2)c1C#N (centres unmarked) [Example 304, 2-((3,5-Dicyano-4-ethyl-6-(4-(2-(pyrrolidin-1-yl)ethyl)piperazin-1-yl)pyridin-2-yl)thio)-2-phenylacetamide] | 
1000 to 31600 nM |  | CCc1c(C#N)c(S[C@H](C(N)=O)c2ccccc2)nc(N2CCC(C)(N)CC2)c1C#N (single isomer, unassigned) [Example 617, 2-((6-(4-amino-4-methylpiperidin-1-yl)-3,5-dicyano-4-ethylpyridin-2-yl)thio)-2-phenylacetamide] | IC50 [2]: ≥ 1000 nM and 2510 nM
 | D (Category D: ≥6.5) | COc1c(C#N)c(SC(C(N)=O)c2ccccc2)nc(N2CC[C@H](O)C2)c1C#N (stereo partly drawn) [Example 696, 2-((3,5-dicyano-6-((S)-3-hydroxypyrrolidin-1-yl)-4-methoxypyridin-2-yl)thio)-2-phenylacetamide] | 
 | D (Category D: ≥6.5) | CCc1c(C#N)c(SC(C(N)=O)c2ccccc2)nc(N2CCCN(CC(O)CO)CC2)c1C#N (centres unmarked) [Example 678, 2-((3,5-dicyano-6-(4-(2,3-dihydroxypropyl)-1,4-diazepan-1-yl)-4-ethylpyridin-2-yl)thio)-2-phenylacetamide] | 
 | D (Category D: ≥6.5) | CCc1c(C#N)c(S[C@@H](C(N)=O)c2ccccc2)nc(N(C)[C@@H]2CCOC2)c1C#N [Example 501, (R)-2-(3,5-dicyano-4-ethyl-6-(methyl((R)-tetrahydrofuran-3-yl)amino)pyridin-2-ylthio)-2-phenylacetamide] | 
 |  | CCc1c(C#N)c(S[C@@H](C(N)=O)c2ccccc2)nc(N2CC[C@@H](N)[C@@H](O)C2)c1C#N [Example 514, (R)-2-((6-((3S,4R)-4-amino-3-hydroxypiperidin-1-yl)-3,5-dicyano-4-ethylpyridin-2-yl)thio)-2-phenylacetamide, Trifluoroacetic acid salt] | IC50 (DNMT1 BioChemical (pIC50 category), binned activity in either the breaklight or the SPA assay): < 316 nM
 | D (Category D: ≥6.5) | CCc1c(C#N)c(SC(C(N)=O)c2ccc(F)cc2)nc(N2CCC(N(C)C3CCC3)CC2)c1C#N (centres unmarked) [Example 432, 2-((3,5-Dicyano-6-(4-(cyclobutyl(methyl)amino)piperidin-1-yl)-4-ethylpyridin-2-yl)thio)-2-(4-fluorophenyl)acetamide] | 
 | D (Category D: ≥6.5) | CCc1c(C#N)c(SC(C(N)=O)c2ccccc2)nc(N2CCC(C3CCN(CCO)CC3)CC2)c1C#N (centres unmarked) [Example 60, 2-((3,5-dicyano-4-ethyl-6-(1′-(2-hydroxyethyl)-[4,4′-bipiperidin]-1-yl)pyridin-2-yl)thio)-2-phenylacetamide] | 
316 to 1000 nM |  | CCc1c(C#N)c(SC(C(N)=O)c2ccccc2)nc(N2CCN(C(=O)c3ccccc3)CC2)c1C#N (centres unmarked) [Example 131, 2-((6-(4-Benzoylpiperazin-1-yl)-3,5-dicyano-4-ethylpyridin-2-yl)thio)-2-phenylacetamide] | IC50 [2]: 316 to 1000 nM
316 to 1000 nM |  | N#Cc1c(SC(C(N)=O)c2ccccc2)nc(N2CCCN(CCO)CC2)c(C#N)c1CC(F)(F)F (centres unmarked) [Example 113, 2-({3,5-Dicyano-6-[4-(2-hydroxyethyl)-1,4-diazepan-1-yl]-4-(2,2,2-trifluoroethyl)pyridin-2-yl}sulfanyl)-2-phenylacetamide] | 
 | D (Category D: ≥6.5) | CCc1c(C#N)c(SCc2ccc(N(C)S(C)(=O)=O)cc2)nc(N2CC[C@@H](CNC(=O)CN)C2)c1C#N [Example 672, (S)-2-amino-N-((1-(3,5-dicyano-4-ethyl-6-((4-(N-methylmethylsulfonamido)benzyl)thio)pyridin-2-yl)pyrrolidin-3-yl)methyl)acetamide] | 
 | D (Category D: ≥6.5) | CCc1c(C#N)c(SC(C(N)=O)c2ccccc2)nc(N2CCC(NCC3(C)CC3)CC2)c1C#N (centres unmarked) [Example 473, 2-((3,5-dicyano-4-ethyl-6-(4-(((1-methylcyclopropyl)methyl)amino)piperidin-1-yl)pyridin-2-yl)thio)-2-phenylacetamide] | 
